Measurements as given in patent publication US20250230193A1, “CYCLIC COMPOUND HAVING SELECTIVE KRAS INHIBITORY EFFECT ON HRAS AND NRAS” (CHUGAI SEIYAKU KABUSHIKI KAISHA, priority 2022, published 2025).
*1 amine or outer side, *2 acyl side, *3 side chain or, on linkers, in order; H or OH if unused. Where a SMILES comes first, the peptide text is derived from it. Bridges are numbered along the chain shown (N, C = ends). [ ]: non-standard residue; d: D form. The star is where a group is joined. hPhe(3-Cl-4-CF3) = N[C@@H](CCc1ccc(C(F)(F)F)c(Cl)c1)C(=O)O; X47 = O=C([C@H](Cc1ccc(C(F)(F)F)cc1)N(CCCF)[*:1])[*:2]; X20 = CCCN([C@@H](CC1CCC(F)(F)CC1)C(=O)[*:2])[*:1]; NMeGly(cPent) = CN[C@H](C(=O)O)C1CCCC1; NMeD = CN[C@@H](CC(=O)O)C(=O)O; NMeL = CN[C@@H](CC(C)C)C(=O)O; Morpholide = C1CN(*)CCO1; NMeA = CN[C@@H](C)C(=O)O; Ac5c = NC1(C(=O)O)CCCC1; Aze = O=C(O)[C@@H]1CCN1; Sar = CNCC(=O)O

Legend:
[1] = biological target: GDP-bound NRAS wild-type protein (Homo sapiens, UniProt P01111); assay: Binding to NRAS by surface plasmon resonance (SPR), Single Cycle Kinetics; details: KD ratio NRAS/KRAS, SPR
[2] = biological target: GDP-bound HRAS wild-type protein (Homo sapiens, UniProt P01112); assay: Binding to HRAS by surface plasmon resonance (SPR), Single Cycle Kinetics; details: KD ratio HRAS/KRAS, SPR
GDP-bound HRAS wild-type protein, sequence (P01112 whole entry): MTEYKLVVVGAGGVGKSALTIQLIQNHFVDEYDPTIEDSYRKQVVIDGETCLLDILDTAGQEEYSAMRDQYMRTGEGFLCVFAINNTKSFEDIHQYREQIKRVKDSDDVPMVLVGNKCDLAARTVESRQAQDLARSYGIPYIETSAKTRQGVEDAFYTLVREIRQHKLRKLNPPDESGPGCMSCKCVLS

GDP-bound NRAS wild-type protein, sequence (P01111 whole entry): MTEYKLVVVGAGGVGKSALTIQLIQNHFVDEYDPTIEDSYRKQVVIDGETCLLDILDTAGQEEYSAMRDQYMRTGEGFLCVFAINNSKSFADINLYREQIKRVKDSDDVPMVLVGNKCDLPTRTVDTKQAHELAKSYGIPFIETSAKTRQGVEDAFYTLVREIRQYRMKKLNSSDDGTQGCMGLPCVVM

Row | SMILES | NRAS/KRAS (ratio of KD value with respect to GDP-bound NRAS wild-type protein to KD value with respect to KRAS) [1] | HRAS/KRAS (ratio of KD value with respect to GDP-bound HRAS wild-type protein to KD value with respect to KRAS) [2]
1 | CC[C@H](C)[C@@H]1NC(=O)[C@H](CC(C)C)N(C)C(=O)C[C@@H](C(=O)N(C)C)N(C)C(=O)[C@H](C2CCCC2)N(C)C(=O)C2(CCC2)NC(=O)[C@@H]2CCCN2C(=O)[C@H](CCc2cc(F)c(C(F)(F)F)c(F)c2)NC(=O)CN(C)C(=O)[C@H](Cc2ccc(C(F)(F)F)cc2)N2CCCCC[C@@H](C2=O)N(C)C(=O)CN(C)C1=O [PP0512] | B (a compound having 3 or more and less than 10 is denoted as B) | B (a compound having 3 or more and less than 10 is denoted as B)
2 | CC[C@H](C)[C@@H]1NC(=O)[C@H](CC(C)C)N(CC)C(=O)C[C@@H](C(=O)N2CCOCC2)N(C)C(=O)[C@H](C2CCCC2)N(C)C(=O)C2(CCCC2)NC(=O)[C@@H]2CCCN2C(=O)[C@H](CCc2cc(F)c(C(F)(F)F)c(F)c2)NC(=O)CN(C)C(=O)[C@H](Cc2ccc(C(F)(F)F)cc2)N2CCCCC[C@@H](C2=O)N(C)C(=O)CN(C)C1=O [PP0513] | B (a compound having 3 or more and less than 10 is denoted as B) | B (a compound having 3 or more and less than 10 is denoted as B)
3 | CC[C@H](C)[C@@H]1NC(=O)[C@H](CC(C)C)N(C)C(=O)C[C@@H](C(=O)N(C)C)N(C)C(=O)[C@H](C2CCCC2)N(C)C(=O)C2(CCCC2)NC(=O)[C@@H]2CCCN2C(=O)[C@H](CCc2cc(F)c(C(F)(F)F)c(F)c2)NC(=O)CN(C)C(=O)[C@H](Cc2ccc(C(F)(F)F)cc2)N2CCCCC[C@@H](C2=O)N(C)C(=O)CN(CC)C1=O [PP0514] | B (a compound having 3 or more and less than 10 is denoted as B) | B (a compound having 3 or more and less than 10 is denoted as B)
4 | CC[C@H](C)[C@@H]1NC(=O)[C@H](CC(C)C)N(C)C(=O)C[C@@H](C(=O)N2CCOCC2)N(C)C(=O)[C@H](C2CCCC2)N(C)C(=O)C2(CCCC2)NC(=O)[C@H](C)N(CC)C(=O)[C@H](CCc2cc(F)c(C(F)(F)F)c(F)c2)NC(=O)CN(C)C(=O)[C@H](Cc2ccc(C(F)(F)F)cc2)N2CCCCC[C@@H](C2=O)N(C)C(=O)CN(C)C1=O [PP0515] | B (a compound having 3 or more and less than 10 is denoted as B) | B (a compound having 3 or more and less than 10 is denoted as B)
5 | CC[C@H](C)[C@@H]1NC(=O)[C@H](CC(C)C)NC(=O)C[C@@H](C(=O)N2CCOCC2)N(C)C(=O)[C@H](C2CCCC2)N(C)C(=O)C2(CCCC2)NC(=O)[C@@H]2CCCN2C(=O)[C@H](CCc2cc(F)c(C(F)(F)F)c(F)c2)NC(=O)CN(C)C(=O)[C@H](Cc2ccc(C(F)(F)F)cc2)N2CCCCC[C@@H](C2=O)N(C)C(=O)CN(C)C1=O [PP0516] | B (a compound having 3 or more and less than 10 is denoted as B) | B (a compound having 3 or more and less than 10 is denoted as B)
6 | CC[C@H](C)[C@@H]1NC(=O)[C@H](CC(F)(F)F)N(C)C(=O)C[C@@H](C(=O)N2CCOCC2)N(C)C(=O)[C@H](C2CCCC2)N(C)C(=O)C2(CCCC2)NC(=O)[C@@H]2CCCN2C(=O)[C@H](CCc2cc(F)c(C(F)(F)F)c(F)c2)NC(=O)CN(C)C(=O)[C@H](Cc2ccc(C(F)(F)F)cc2)N2CCCCC[C@@H](C2=O)N(C)C(=O)CN(C)C1=O [PP0520] | B (a compound having 3 or more and less than 10 is denoted as B) | B (a compound having 3 or more and less than 10 is denoted as B)
7 | CC[C@H](C)[C@@H]1NC(=O)[C@@H]2CCCCCN2C(=O)C[C@@H](C(=O)N2CCOCC2)N(C)C(=O)[C@H](C2CCCC2)N(C)C(=O)C2(CCCC2)NC(=O)[C@@H]2CCCN2C(=O)[C@H](CCc2cc(F)c(C(F)(F)F)c(F)c2)NC(=O)CN(C)C(=O)[C@H](Cc2ccc(C(F)(F)F)cc2)N2CCCCC[C@@H](C2=O)N(C)C(=O)CN(C)C1=O [PP0521] | B (a compound having 3 or more and less than 10 is denoted as B) | B (a compound having 3 or more and less than 10 is denoted as B)
8 | CC(C)C[C@H]1C(=O)N[C@@H](C2CCC2)C(=O)N(C)CC(=O)N(C)[C@H]2CCCCCN(C2=O)[C@@H](Cc2ccc(C(F)(F)F)cc2)C(=O)N(C)CC(=O)N[C@@H](CCc2cc(F)c(C(F)(F)F)c(F)c2)C(=O)N2CCC[C@H]2C(=O)NC2(CCCC2)C(=O)N(C)[C@@H](C2CCCC2)C(=O)N(C)[C@H](C(=O)N2CCOCC2)CC(=O)N1C [PP0522] | B (a compound having 3 or more and less than 10 is denoted as B) | B (a compound having 3 or more and less than 10 is denoted as B)
9 | CCC(CC)[C@@H]1NC(=O)[C@H](CC(C)C)N(C)C(=O)C[C@@H](C(=O)N2CCOCC2)N(C)C(=O)[C@H](C2CCCC2)N(C)C(=O)C2(CCCC2)NC(=O)[C@@H]2CCCN2C(=O)[C@H](CCc2cc(F)c(C(F)(F)F)c(F)c2)NC(=O)CN(C)C(=O)[C@H](Cc2ccc(C(F)(F)F)cc2)N2CCCCC[C@@H](C2=O)N(C)C(=O)CN(C)C1=O [PP0523] | A (a compound having 10 or more and less than 20 is denoted as A) | B (a compound having 3 or more and less than 10 is denoted as B)
10 | CC[C@H](C)[C@@H]1NC(=O)[C@H](CC(C)C)N(C)C(=O)C[C@@H](C(=O)N2CCOCC2)N(C)C(=O)[C@H](C2CCCC2)N(C)C(=O)C2(CCCC2)NC(=O)[C@@H]2CCCN2C(=O)[C@H](CCc2ccc(C(F)(F)F)c(Cl)c2)NC(=O)CN(C)C(=O)[C@H](Cc2ccc(C(F)(F)F)cc2)N(CCCF)C(=O)CN(C)C(=O)CN(C)C1=O [PP0524] ([NMeL]I[Sar][Sar][X47][Sar][hPhe(3-Cl-4-CF3)]P[Ac5c][NMeGly(cPent)][NMeD]-Morpholide; lactam N-11) | B (a compound having 3 or more and less than 10 is denoted as B) | C (A compound having a KD ratio of 0.1 or more and less than 3 is denoted as C)
11 | CC[C@H](C)[C@@H]1NC(=O)[C@H](CC(C)C)N(C)C(=O)C[C@@H](C(=O)N2CCOCC2)N(C)C(=O)[C@H](C2CCCC2)N(C)C(=O)C2(CCCC2)NC(=O)[C@@H]2CCCN2C(=O)[C@H](CCc2ccc(C(F)(F)F)c(Cl)c2)NC(=O)CN(C)C(=O)[C@H](Cc2ccc(C(F)(F)F)cc2)N(CCCF)C(=O)[C@@H]2CCN2C(=O)[C@H](C)N(C)C1=O [PP0525] ([NMeL]I[NMeA][Aze][X47][Sar][hPhe(3-Cl-4-CF3)]P[Ac5c][NMeGly(cPent)][NMeD]-Morpholide; lactam N-11) | C (A compound having a KD ratio of 0.1 or more and less than 3 is denoted as C) | B (a compound having 3 or more and less than 10 is denoted as B)
12 | CCCN1C(=O)CN(C)C(=O)CN(C)C(=O)[C@H]([C@@H](C)CC)NC(=O)[C@H](CC(C)C)N(C)C(=O)C[C@@H](C(=O)N2CCOCC2)N(C)C(=O)[C@H](C2CCCC2)N(C)C(=O)C2(CCCC2)NC(=O)[C@@H]2CCCN2C(=O)[C@H](CCc2ccc(C(F)(F)F)c(Cl)c2)NC(=O)CN(C)C(=O)[C@@H]1CC1CCC(F)(F)CC1 [PP0526] ([NMeL]I[Sar][Sar][X20][Sar][hPhe(3-Cl-4-CF3)]P[Ac5c][NMeGly(cPent)][NMeD]-Morpholide; lactam N-11) | B (a compound having 3 or more and less than 10 is denoted as B) | C (A compound having a KD ratio of 0.1 or more and less than 3 is denoted as C)
13 | CCCN1C(=O)[C@@H]2CCN2C(=O)[C@H](C)N(C)C(=O)[C@H]([C@@H](C)CC)NC(=O)[C@H](CC(C)C)N(C)C(=O)C[C@@H](C(=O)N2CCOCC2)N(C)C(=O)[C@H](C2CCCC2)N(C)C(=O)C2(CCCC2)NC(=O)[C@@H]2CCCN2C(=O)[C@H](CCc2ccc(C(F)(F)F)c(Cl)c2)NC(=O)CN(C)C(=O)[C@@H]1CC1CCC(F)(F)CC1 [PP0527] ([NMeL]I[NMeA][Aze][X20][Sar][hPhe(3-Cl-4-CF3)]P[Ac5c][NMeGly(cPent)][NMeD]-Morpholide; lactam N-11) | C (A compound having a KD ratio of 0.1 or more and less than 3 is denoted as C) | C (A compound having a KD ratio of 0.1 or more and less than 3 is denoted as C)
14 | CC[C@H](C)[C@@H]1NC(=O)[C@H](CC(C)C)N(C)C(=O)C[C@@H](C(=O)N2CCOCC2)N(C)C(=O)[C@H](C2CCCC2)N(C)C(=O)C2(CCCC2)NC(=O)[C@@H]2CCCN2C(=O)[C@H](CCc2ccc(C(F)(F)F)c(Cl)c2)NC(=O)CN(C)C(=O)[C@H](Cc2ccccc2)N2CC=CC[C@@H](C2=O)N(C)C(=O)CN(C)C1=O [PP0528] | C (A compound having a KD ratio of 0.1 or more and less than 3 is denoted as C) | C (A compound having a KD ratio of 0.1 or more and less than 3 is denoted as C)
